Source: patent US10457649B2, “Polymorphs of a mPGES-1 inhibiting triazolone compound” (Glenmark Pharmaceuticals S.A., priority 2015, dated 2019)

Assay: Stability studies of compound of formula II on storage; degradation products estimated by HPLC
Type: physicochemical
From the text: Apparatus: A High Performance Liquid Chromatograph equipped with quaternary gradient pumps, variable wavelength UV detector attached with data recorder and Integrator software or equivalent.
Column: Zorbax Eclipse XDB C-8, 150 mm×4.6 mm, 5μ or equivalent
Mobile phase: A: Buffer B: Methanol (Gradient Program)
Buffer: Water, pH adjusted to 2.2 with trifluoroacetic acid solution. Filter through 0.45μ filter paper and degas.
Diluent: Water: Methanol (20:80 v/v)
Detection wavelength: UV 270 nm
Column temperature: 25° C.
25 mg of the compound was weighed and transferred into a 50 mL volumetric flask. Methanol (5 ml) was added and it was sonicated to dissolve. The diluent was added to make up the solution to the mark of the flask.
The equal volumes of blank (diluent) and test solution were separately injected into the High Performance liquid chromatography. The responses were recorded eliminating the peaks due to blank and the chromatographic purity by area was calculated by normalization method.
The compound of formula II was stored under conditions as shown in below table and a total amount of degradation products (related substances) as well as single maximum impurity formed during storage was estimated by HPLC. The material was packed in inner clear polythene bag under nitrogen lined with black polythene bag, covered with triple laminated aluminium bag placed in HDPE drum and subjected to the conditions mentioned in the table 5.
The result of stability studies of compound of formula (II) carried out under the conditions mentioned in the table 5 is presented in tables 6 and 7.

[1] = storage condition 1: 25 ± 2° C., 60 ± 5% RH, storage period 0 months
[2] = storage condition 1: 25 ± 2° C., 60 ± 5% RH, storage period 3 months
[3] = storage condition 1: 25 ± 2° C., 60 ± 5% RH, storage period 6 months
[4] = storage condition 2: 40 ± 2° C., 75 ± 5% RH, storage period 0 months
[5] = storage condition 2: 40 ± 2° C., 75 ± 5% RH, storage period 1 month
[6] = storage condition 2: 40 ± 2° C., 75 ± 5% RH, storage period 2 months
[7] = storage condition 2: 40 ± 2° C., 75 ± 5% RH, storage period 3 months
[8] = storage condition 2: 40 ± 2° C., 75 ± 5% RH, storage period 6 months

**Q.** For `CC(C)(C)C(=O)NCc1ccc(Cl)c(-c2nn(-c3ccc(C(F)(F)F)cc3)c(=O)[nH]2)c1` [compound of formula II, N-(4-chloro-3-(5-oxo-1-(4-(trifluoromethyl)phenyl)-4,5-dihydro-1H-1,2,4-triazol-3-yl)benzyl)pivalamide], which Related substances [1] is on record?
**A.** 0.13%

**Q.** And the Single max. impurity [1]?
**A.** 0.13%

**Q.** What about the Related substances [2] of the same compound?
**A.** 0.14%

**Q.** What about the Single max. impurity [2] of the same compound?
**A.** 0.14%

**Q.** What about the Related substances [3] of the same compound?
**A.** 0.14%

**Q.** What about the Single max. impurity [3] of the same compound?
**A.** 0.14%

**Q.** What about the Related substances [4] of the same compound?
**A.** 0.13%

**Q.** And the Single max. impurity [4]?
**A.** 0.13%

**Q.** And the Related substances [5]?
**A.** 0.14%

**Q.** And the Single max. impurity [5]?
**A.** 0.14%

**Q.** And the Related substances [6]?
**A.** 0.13%

**Q.** What about the Single max. impurity [6] of the same compound?
**A.** 0.13%

**Q.** What about the Related substances [7] of the same compound?
**A.** 0.14%

**Q.** And the Single max. impurity [7]?
**A.** 0.14%

**Q.** What about the Related substances [8] of the same compound?
**A.** 0.13%

**Q.** What about the Single max. impurity [8] of the same compound?
**A.** 0.13%
